The first series concerns the target T1, human FSH receptor (Homo sapiens, UniProt P23945).
T1 construct: expressed in transfected cells
T1 sequence (P23945 18-695): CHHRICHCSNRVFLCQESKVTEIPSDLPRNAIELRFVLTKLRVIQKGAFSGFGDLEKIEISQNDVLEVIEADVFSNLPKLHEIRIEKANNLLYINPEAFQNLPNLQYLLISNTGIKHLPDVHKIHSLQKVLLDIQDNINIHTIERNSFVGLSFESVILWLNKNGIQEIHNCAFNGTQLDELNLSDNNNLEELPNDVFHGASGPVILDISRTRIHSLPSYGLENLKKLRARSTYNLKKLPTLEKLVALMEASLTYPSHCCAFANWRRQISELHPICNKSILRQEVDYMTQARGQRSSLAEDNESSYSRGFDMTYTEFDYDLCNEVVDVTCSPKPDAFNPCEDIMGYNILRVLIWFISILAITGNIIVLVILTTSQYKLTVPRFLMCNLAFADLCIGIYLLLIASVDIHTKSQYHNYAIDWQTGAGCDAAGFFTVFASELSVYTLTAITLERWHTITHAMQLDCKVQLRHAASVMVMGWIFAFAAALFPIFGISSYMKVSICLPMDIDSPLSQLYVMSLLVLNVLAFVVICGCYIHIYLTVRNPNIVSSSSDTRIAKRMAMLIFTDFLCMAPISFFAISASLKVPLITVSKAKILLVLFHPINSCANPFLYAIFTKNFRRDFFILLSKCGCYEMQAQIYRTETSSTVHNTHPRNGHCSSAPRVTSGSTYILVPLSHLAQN
Description: hFSHRago (CHO luc): agonistic activity at the human FSH receptor expressed in CHO cells, CRE-luciferase reporter. Type of series: cell-based. The settings on record: CHO cells stably transfected with human FSH receptor and CRE/luciferase reporter; 4 hours of incubation. In general terms: In a reporter assay the amount or activity of a reporter protein is the signal.
The term EC50 denotes the concentration that produces a half-maximal response. A higher EC50 goes with weaker potency. `COc1cc2c(cc1Oc1cccc(F)c1)-c1c(-c3cccs3)cc(C(=O)N(C)C(C)(C)C)n1CC2` [Example 75, 9-(3-Fluoro-phenoxy)-8-methoxy-1-thiophen-2-yl-5,6-dihydro-pyrrolo[2,1-α]isoquinoline-3-carboxylic acid tert-butyl-methyl-amide]: a half-maximal response (EC50) required 16.3 nM. With `COc1cc2c(cc1OC(C)C)-c1c(-c3cccs3)cc(C(=O)N3CCCN(C(C)=O)CCC3)n1CC2` [Example 16, 1-[5-(9-Isopropoxy-8-methoxy-1-thiophen-2-yl-5,6-dihydro-pyrrolo[2,1-α]isoquinoline-3-carbonyl)-[1,5]diazocan-1-yl]-ethanone], the EC50 came out at 5 nM. As to `COc1cccc(Oc2cc3c(cc2OC)CCn2c(C(=O)N(C)C(C)(C)C)cc(-c4cccs4)c2-3)c1` [Example 74, N-tert-butyl-8-methoxy-9-(3-methoxyphenoxy)-N-methyl-1-(thiophen-2-yl)-5,6-dihydropyrrolo[2,1-α]isoquinoline-3-carboxamide], the EC50 turned out to be 203 nM.

`COc1cc2c(cc1CCC(C)(C)O)-c1c(-c3cccs3)cc(C(=O)N(C)C(C)(C)C)n1CC2` [Example 92, 9-(3-Hydroxy-3-methyl-butyl)-8-methoxy-1-thiophen-2-yl-5,6-dihydro-pyrrolo[2,1-α]isoquinoline-3-carboxylic acid tert-butyl-methyl-amide] displayed an EC50 of 6 nM.

`COc1cc2c(cc1OC(C)C)-c1c(-c3cccs3)cc(C(=O)N3CC4CC(C3)C3CCCC(=O)N3C4)n1CC2` (stereo not drawn) [Example 19, 3-(9-Isopropoxy-8-methoxy-1-thiophen-2-yl-5,6-dihydro-pyrrolo[2,1-α]isoquinoline-3-carbonyl)-decahydro-1,5-methano-pyrido[1,2-α][1,5]diazocin-8-one] gave an EC50 of 29.4 nM. Same read-out and setting: to `CCCCN1CCN(C(=O)c2cc(-c3cccs3)c3n2CCc2cc(OC)c(OCC(=O)OCC)cc2-3)CCC1=O` [Example 14c, [3-(4-Butyl-5-oxo-[1,4]diazepane-1-carbonyl)-8-methoxy-1-thiophen-2-yl-5,6-dihydro-pyrrolo[2,1-α]isoquinolin-9-yloxy]-acetic acid ethyl ester] belongs 11 nM. Same read-out and setting: next, `COc1cc2c(cc1OC(C)C)-c1c(-c3cccs3)cc(C(=O)N3CCCN(C(=O)CSC)CC3)n1CC2` [Example 2, 1-[4-(9-Isopropoxy-8-methoxy-1-thiophen-2-yl-5,6-dihydro-pyrrolo[2,1-α]isoquinoline-3-carbonyl)-[1,4]diazepan-1-yl]-2-methylsulfanyl-ethanone]: 0.5 nM; `COc1cc2c(cc1OC)-c1c(Br)cc(C(=O)O)n1CC2` [Example 108b]: 99.2 nM. The same measure, in the same setting: to `CCN(C(=O)c1cc(-c2cccs2)c2n1CCc1c-2cc(OC)c(OC)c1C)C(C)C` [Example 114, 8,9-Dimethoxy-7-methyl-1-thiophen-2-yl-5,6-dihydro-pyrrolo[2,1-α]isoquinoline-3-carboxylic acid ethyl-isopropyl-amide] belongs 321 nM; to `COCc1cc2c(cc1OC)CCn1c(C(=O)N(C)C(C)(C)C)cc(-c3cccs3)c1-2` [Example 121b, 8-Methoxy-9-methoxymethyl-1-thiophen-2-yl-5,6-dihydro-pyrrolo[2,1-α]isoquinoline-3-carboxylic acid tert-butyl-methyl-amide], 1.6 nM. For the compound `CCCCN1CCN(C(=O)c2cc(-c3cccs3)c3n2CCc2cc(OC)c(OC(C)C)cc2-3)CCC1=O` [Example 14a, 4-Butyl-1-(9-isopropoxy-8-methoxy-1-thiophen-2-yl-5,6-dihydro-pyrrolo[2,1-α]iso-quinoline-3-carbonyl)-[1,4]diazepan-5-one], it took 0.8 nM to reach a half-maximal effect (EC50). Compound `COc1cc2c(cc1OC(C)C)-c1c(-c3cccs3)cc(C(=O)CC(C)(C)C)n1CC2` [Example 45] came in with an EC50 of 65.1 nM. Compound `COc1cc2c(cc1OCC1CC1)-c1c(-c3cccs3)cc(C(=O)N3CCCN(C(C)=O)CC3)n1CC2` [Example 77, 1-[4-(9-Cyclopropylmethoxy-8-methoxy-1-thiophen-2-yl-5,6-dihydro-pyrrolo[2,1-α]iso-quinoline-3-carbonyl)-perhydro-1,4-diazepin-1-yl]-ethanone] had an EC50 of 57.6 nM. The same measure, in the same setting: next, `COc1cc2c(cc1CCCO)-c1c(-c3cccs3)cc(C(=O)N(C)C(C)(C)C)n1CC2` [Example 91d, 9-(3-hydroxy-propyl)-8-methoxy-1-thiophen-2-yl-5,6-dihydro-pyrrolo[2,1-α]iso-quinoline-3-carboxylic acid tert-butyl-methyl-amide]: 0.4 nM; `COC(=O)NCCOc1cc2c(cc1OC)CCn1c(C(=O)N(C)C(C)(C)C)cc(-c3cccs3)c1-2` [Example 66, {2-[3-(tert-Butyl-methyl-carbamoyl)-8-methoxy-1-thiophen-2-yl-5,6-dihydro-pyrrolo[2,1-α]isoquinolin-9-yloxy]-ethyl}-carbamic acid methyl ester]: 31.3 nM; `COc1cc2c(cc1OC1CCCC1)-c1c(-c3cccs3)cc(C(=O)N3CCCN(C(C)=O)CC3)n1CC2` [Example 79, 1-[4-(9-Cyclopentyloxy-8-methoxy-1-thiophen-2-yl-5,6-dihydro-pyrrolo[2,1-α]isoquinoline-3-carbonyl)-perhydro-1,4-diazepin-1-yl]-ethanone]: 14.2 nM. Turning to `COc1cc2c(cc1O)-c1c(-c3cccs3)cc(C(=O)N(C)C(C)(C)C)n1CC2` [Example 52, 9-Hydroxy-8-methoxy-1-thiophen-2-yl-5,6-dihydro-pyrrolo[2,1-α]isoquinoline-3-carboxylic acid tert-butyl-methyl-amide], the midpoint of the response, the EC50, lay at 356 nM.

Consider `COc1cc2c(cc1OCCN=[N+]=[N-])-c1c(-c3cccs3)cc(C(=O)N(C)C(C)(C)C)n1CC2` [Example 65f, 9-(2-Azido-ethoxy)-8-methoxy-1-thiophen-2-yl-5,6-dihydro-pyrrolo[2,1-α]isoquinoline-3-carboxylic acid tert-butyl-methyl-amide], for which the EC50 came to 7.1 nM. Same read-out and setting: next, `COc1cc2c(cc1C(=O)NCCO)-c1c(-c3cccs3)cc(C(=O)N(C)C(C)(C)C)n1CC2` [Example 87, 8-Methoxy-1-thiophen-2-yl-5,6,6a,10a-tetrahydro-pyrrolo[2,1-α]isoquinoline-3,9-dicarboxylic acid 3-(tert-butyl-methyl-amide) 9-[(2-hydroxy-ethyl)-amide]]: 23.9 nM; `COc1cc2c(cc1N)-c1c(-c3cccs3)cc(C(=O)N(C)C(C)(C)C)n1CC2` [Example 95, 9-Amino-8-methoxy-1-thiophen-2-yl-5,6-dihydro-pyrrolo[2,1-α]isoquinoline-3-carboxylic acid tert-butyl-methyl-amide]: 44.8 nM. `COc1cc2c(cc1NC(=O)CN1CCC1)-c1c(-c3cccs3)cc(C(=O)N(C)C(C)(C)C)n1CC2` [Example 97, 9-(2-Azetidin-1-yl-acetylamino)-8-methoxy-1-thiophen-2-yl-5,6-dihydro-pyrrolo[2,1-α]isoquinoline-3-carboxylic acid tert-butyl-methyl-amide] showed an EC50 of 4 nM. The compound `COc1cc2ccn3c(C(=O)N4CCCN(C(=O)C5CCC5)CC4)cc(-c4cccs4)c3c2cc1OC` [Example 111b, (4-Cyclobutanecarbonyl-[1,4]diazepan-1-yl)-(8,9-dimethoxy-1-thiophen-2-yl-pyrrolo[2,1-α]isoquinolin-3-yl)-methanone] returned an EC50 of 4.9 nM.

`COc1cc2c(cc1OC)-c1c(-c3cccs3)cc(C(=O)N3CCCN(C(=O)C4CCC4)CC3)n1CC2` [Example 111a, (4-Cyclobutanecarbonyl-[1,4]diazepan-1-yl)-(8,9-dimethoxy-1-thiophen-2-yl-5,6-dihydro-pyrrolo[2,1-α]isoquinolin-3-yl)-methanone] yielded an EC50 of 2.9 nM. `COc1cc2c(cc1OC(C)C)-c1c(-c3cccs3)cc(C(=O)C(C)N3CCCN(C(C)=O)CC3)n1CC2` (stereo not drawn) [Example 49, 2-(4-Acetyl-[1,4]diazepan-1-yl)-1-(9-isopropoxy-8-methoxy-1-thiophen-2-yl-5,6-dihydro-pyrrolo[2,1-α]isoquinolin-3-yl)-propan-1-one] gave an EC50 of 200 nM.

On to `COc1cc2c(cc1OC(F)F)-c1c(-c3nccs3)cc(C(=O)N(C)C(C)(C)C)n1CC2` [Example 113, 9-Difluoromethoxy-8-methoxy-1-thiazol-2-yl-5,6-dihydro-pyrrolo[2,1-α]isoquinoline-3-carboxylic acid tert-butyl-methyl-amide], for which a half-maximal effect (EC50) was put at 39.6 nM.

In turn, `COc1cc2c(cc1OC(C)C)-c1c(-c3cccs3)c(CO)c(C(=O)N(C)C(C)(C)C)n1CC2` [Example 40, 2-Hydroxymethyl-9-isopropoxy-8-methoxy-1-thiophen-2-yl-5,6-dihydro-pyrrolo[2,1-α]isoquinoline-3-carboxylic acid tert-butyl-methyl-amide] returned an EC50 of 8.8 nM.

Test system in a further series: not given
Assay: not given
Conditions: not given
The term melting point denotes the temperature, or range, at which the solid turns liquid. As to `COc1cc2c(cc1Oc1cccc(F)c1)-c1c(-c3cccs3)cc(C(=O)N(C)C(C)(C)C)n1CC2` [Example 75, 9-(3-Fluoro-phenoxy)-8-methoxy-1-thiophen-2-yl-5,6-dihydro-pyrrolo[2,1-α]isoquinoline-3-carboxylic acid tert-butyl-methyl-amide], the melting point was in the range of 158 to 159 °C. Compound `COc1cc2c(cc1OC(C)C)-c1c(-c3cccs3)cc(C(=O)N3CCCN(C(C)=O)CCC3)n1CC2` [Example 16, 1-[5-(9-Isopropoxy-8-methoxy-1-thiophen-2-yl-5,6-dihydro-pyrrolo[2,1-α]isoquinoline-3-carbonyl)-[1,5]diazocan-1-yl]-ethanone] registered a melting point of 153 to 155 °C.

`COc1cccc(Oc2cc3c(cc2OC)CCn2c(C(=O)N(C)C(C)(C)C)cc(-c4cccs4)c2-3)c1` [Example 74, N-tert-butyl-8-methoxy-9-(3-methoxyphenoxy)-N-methyl-1-(thiophen-2-yl)-5,6-dihydropyrrolo[2,1-α]isoquinoline-3-carboxamide] gave a melting point of 176 to 177 °C. `COc1cc2c(cc1CCC(C)(C)O)-c1c(-c3cccs3)cc(C(=O)N(C)C(C)(C)C)n1CC2` [Example 92, 9-(3-Hydroxy-3-methyl-butyl)-8-methoxy-1-thiophen-2-yl-5,6-dihydro-pyrrolo[2,1-α]isoquinoline-3-carboxylic acid tert-butyl-methyl-amide] displayed a melting point of 153 to 154 °C.

The compound `COc1cc2c(cc1OC(C)C)-c1c(-c3cccs3)cc(C(=O)N3CC4CC(C3)C3CCCC(=O)N3C4)n1CC2` (stereo not drawn) [Example 19, 3-(9-Isopropoxy-8-methoxy-1-thiophen-2-yl-5,6-dihydro-pyrrolo[2,1-α]isoquinoline-3-carbonyl)-decahydro-1,5-methano-pyrido[1,2-α][1,5]diazocin-8-one] registered a melting point of 207 to 208 °C.
